The data set can be described thus: Aqueous solubility of organic solvent, EPA830.7840 flask shaking method. It counts as physicochemical. Particulars: 1 atm and 23°C. An excerpt:
The upper limit of the aqueous solubility of the organic solvent (B) is not particularly limited. The organic solvent (B) may be, for example, a water-miscible organic solvent that can be mixed with water in an arbitrary amount. […] The aqueous solubility of the organic solvent (B) represents the maximum amount (g) of the organic solvent dissolved in 100 g of water.

In the case of `OCc1ccccc1` [Benzyl alcohol], the Aqueous solubility is listed as 4 g/100 g of water and the “amount of the organic solvent dissolved in 100 g of water” value (“amount of the organic solvent dissolved” below) was 4 g. Taken in the same sequence, the figures for `CCCCOCCOCCO` [Diethylene glycol monobutyl ether] were “miscible” and “miscible”.

Consider `COC(C)COC(C)CO` (stereo not drawn) [Dipropylene glycol monomethyl ether], for which the Aqueous solubility result is on record as “miscible”. Take `CCCOC(C)COC(C)CO` (stereo not drawn) [Dipropylene glycol monopropyl ether]: the Aqueous solubility was 18 g/100 g of water and the “amount of the organic solvent dissolved” value is 18 g. Consider `COCC(C)O` (stereo not drawn) [Propylene glycol monomethyl ether], for which the Aqueous solubility result was “miscible”.

Take `CCCCOC(C)COC(C)COC(C)CO` (stereo not drawn) [Tripropylene glycol monobutyl ether]: the Aqueous solubility is on record as 3 g/100 g of water and the “amount of the organic solvent dissolved” value is listed as 3 g.

Turning to `OCCOc1ccccc1` [ethylene glycol monophenyl ether], the “amount of the organic solvent dissolved” value is 2.3 g. Take `COC(C)COC(C)COC(C)CO` (stereo not drawn) [tripropylene glycol monomethyl ether]: the “amount of the organic solvent dissolved” value was “miscible”.

For the origin of these results see patent EP4810579A1, “AQUEOUS COATING COMPOSITION” (Chugoku Marine Paints, Ltd., priority 2023, dated 2025).
